# Values quoted from earlier work as cited in patent US20110152382A1, “Composition of molecular elements for phosphorylase kinase inhibition” (priority 2009, published 2011).
# Experiments:
# phosphorylase kinase [1] = test system: phosphorylase kinase
# phosphorylase kinase [2] = settings: previously reported by the inventor
Molecule,anti-phosphorylase kinase activity (phosphorylase kinase [1]),phosphorylase kinase activity in psoriatic skin (phosphorylase kinase [2])
"COc1cc(/C=C/C(=O)CC(=O)/C=C/c2ccc(O)c(OC)c2)ccc1O [curcumin, diferuloylmethane]",selective phosphorylase kinase inhibitor,suppression of phosphorylase kinase activity
curcumin glucuronate,do not have anti-phosphorylase kinase activity,
